In patent US7282512B2, “Cycloalkyl ketoamides derivatives useful as cathepsin K inhibitors” (SmithKline Beecham Corporation, priority 2002, dated 2007) one finds Ki data, which are given here for three compounds.

The assay concerns the target T1, human cathepsin K (Homo sapiens, UniProt P43235).
T1 construct: The proform of cathepsin K was converted to mature cathepsin K by brief exposure to pH 4; made in house; host or cells: baculovirus; Trichoplusia ni High Five cells (virus raised in Sf-9)
T1 sequence (P43235 115-329): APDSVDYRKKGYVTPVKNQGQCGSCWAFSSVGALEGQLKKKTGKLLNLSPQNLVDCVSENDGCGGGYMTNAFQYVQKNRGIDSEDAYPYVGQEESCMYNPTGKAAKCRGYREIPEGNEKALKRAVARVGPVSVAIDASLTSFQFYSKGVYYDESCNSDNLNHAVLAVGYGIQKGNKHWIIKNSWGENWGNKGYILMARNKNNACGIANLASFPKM
Put plainly: cathepsin K inhibition assay, fluorogenic substrate Cbz-Phe-Arg-AMC, progress curve method. Type of assay: biochemical. As to conditions: human recombinant enzyme, 10 μM substrate. On the procedure: All assays for cathepsin K were carried out with human and rat recombinant enzyme. Assays for cathepsins S & V were also carried out with human recombinant enzyme. Assays for human cathepsins B, H, and L were carried out with enzyme, purchased from Athens Research and Technology, Inc., prepared from human liver tissue. […] A stock substrate solution of Cbz-Phe-Arg-AMC was prepared at a concentration of 50 mM in dimethyl sulfoxide. This substrate was diluted into the assay for a final substrate concentration of 10 μM in the rat cathepsin K, human cathepsin K, and human cathepsin B assays; a final substrate concentration of 5 μM in the human cathepsin L assay; and a final substrate concentration of 2 μM in the human cathepsin V assay.
All assays contained 10% dimethyl sulfoxide. […] All assays were conducted at 30° C. Product fluorescence (excitation at 360 nm; emission at 440 nm, (except cathepsin H which used excitation at 340 nm; emission at 420 nm)) was monitored with a PerSeptive Biosystems Cytofluor II fluorescence plate reader. Product progress curves were generated over 2.3 h monitoring the formation of 7-amino-4-methylcoumarin product (or β-naphthalamide for cathepsin H).
Two liters of Spodoptera frugiperda (Sf-9) cells (ATCC) were grown in Grace's Supplemented medium (Life Technologies) supplemented with 2 g/L glucose, 10% fetal bovine serum (HyClone) and 0.1% pluronic F-68 (Life Technologies). […] The cells continued to grow for 72 h post-infection, before the virus was harvested by centrifugation at 1400×g for 30 min.
One and one-half liters of Trichoplusia ni (T. ni) High Five (™) cells [JRH Biosciences, Woodland, Calif. […] Media were separated from cells at a rate of 1 L/min using the Centritech 100 (™) continuous-flow centrifuge (DuPont) operating at 200×g.
Protein Purification: Media (human and rat) were filtered through a Whatman 3 filter, and then loaded onto a 25 mL Poros HS II (26 mm×47 mm) cation exchange column equilibrated in 25 mM sodium acetate at pH 5.5 (equilibration buffer). The column was washed until the absorbance reached the baseline value, and then the protein was eluted with a linear gradient from 0-2 M sodium chloride in the equilibration buffer. Column fractions were analyzed by SDS-PAGE, N-terminal sequencing, and mass spectrometry. Fractions containing the proform of cathepsin K were pooled and frozen at −80° C. The proform was concentrated in an Amicon Centriprep 10 and fractionated with a Superdex 75 column (26 mm×600 mm, Pharmacia) equilibrated in 400 mM sodium chloride, 25 mM sodium acetate at pH 5.5.
Cathepsin K Activation: The proform of cathepsin K was converted to mature cathepsin K by brief exposure to pH 4 in the presence of 5 mM L-cysteine. Typically, 5 mM L-cysteine was added to 10 mL of approximately 1 mg/mL procathepsin K. One mL of this solution was diluted ten-fold into 450 mM sodium acetate at pH 4.0 containing 5 mM L-cysteine. This solution was reacted at 23° C. for 2 min before neutralization with 2 mL 1.8 M sodium acetate at pH 6.0. The neutralized sample was added to the remaining 9 mL of procathepsin K. The mixture was incubated at 4° C. for 2-3 days. The activated cathepsin K was chromatographed on a Poros HS II column as described above.
Potential inhibitors were evaluated using the progress curve method. Assays were carried out in the presence of variable concentrations of test compound. Reactions were initiated by addition of buffered solutions of inhibitor and substrate to enzyme. Data analysis was conducted according to one of two procedures depending on the appearance of the progress curves in the presence of inhibitors. […] Ki values were calculated from IC50 values using equation 2 assuming a competitive model.

Where [1] appears, read: Table 1, pH 5.5, 30° C., read-out: hcatK Ki.

Read-outs that look alike come from different tables or passages of the source.

Consider `CCCC[C@H](NC(=O)OC1(Cc2ccccc2)CCCC1)C(=O)C(=O)N[C@@H](C)C(=O)OCc1ccccc1` [Example 3, Benzyl (2S)-2-{[(3S)-3-({[(1-benzylcyclopentyl)oxy]carbonyl}amino)-2-oxoheptanoyl]amino}propanoate], for which the Ki runs as follows: under setting [1], 10 to 100 nM; (Table 2, read-out: hCat K Ki) 10 to 100 nM.

On to `CCCC[C@H](NC(=O)OCC1(Cc2ccc(F)cc2)CCC1)C(=O)C(=O)Nc1n[nH]c2cc(Cl)ccc12` [Example 15, [1-(4-fluorobenzyl)cyclobutyl]methyl(1S)-1-[[(6-chloro-1H-indazol-3-yl)amino](oxo)acetyl]pentylcarbamate], for which the inhibitory constant (Ki) under setting [1] was less than 1 nM and the Ki (Table 2, read-out: hCat K Ki) was less than 1 nM.

For `CCCC[C@H](NC(=O)OC1(c2nc3ccccc3s2)CCCC1)C(=O)C(=O)Nc1ccn[nH]1` [Example 17, 1-(1,3-Benzothiazol-2-yl)cyclopentyl(1S)-1-[oxo(1H-pyrazol-3-ylamino)acetyl]pentylcarbamate], the Ki lay in the range of 1 to 10 nM under setting [1] and 1 to 10 nM (Table 2, read-out: hCat K Ki).

A word on the Ki: it is the dissociation constant of the complex between target and ligand, obtained from inhibition or displacement.
